The text below walks through data of patent US20160045496A1, “USE OF (RS)-S-CYCLOPROPYL-S-(4--5-(TRIFLUOROMETHYL)PYRIMIDIN-2-YL]AMINO}PHENYL)SULFOXIMIDE FOR TREATMENT OF SPECIFIC TUMOURS” (BAYER PHARMA AKTIENGESELLSCHAFT, priority 2013, published 2016).

What is called IC50 is the midpoint of a concentration-inhibition curve. Low values mean greater potency in that assay, high ones weaker potency in that assay.

Holding throughout (format): cell-based
One experiment has as its system UPN-1 cells. Description: Cytotoxic action after 24 hours, WST-1 viability. Conditions: Homo sapiens, UPN1, UPN-1 (Institut Gustave Roussy), mantle cell lymphoma, after 24 hours of incubation. On the procedure:
(§1) The cytotoxic action of BAY 1000394 on Jeko-1 and UPN-1 cells was also determined after 24 hours of incubation with the substance. To this end, 50 000 cells per measurement point were plated out in 96-well plates and incubated with BAY 1000394 in various concentrations in the range of 0.001 to 1.0 μM. After 24 hours, the viability of the cells was determined in accordance with the WST-1 method (Roche Diagnostics, catalogue number 11644807001).
(§2) The substances were investigated in the following cell lines, which, by way of example, represent the specified indications (table 1).
In general terms: Tetrazolium assays rely on reduction of a dye to a coloured formazan, in cell work by metabolically active cells.

Experiment [1] concerns Jeko-1 cells. Description: Cytotoxic action after 24 hours, WST-1 viability. To be noted: Homo sapiens, Jeko-1 (Institut Gustave Roussy), mantle cell lymphoma, after 24 hours of incubation. As to the method: as §1, §2
The next experiment has as its system SiHa cells. Description: Proliferation assay, adherent cells, crystal violet. Conditions: Homo sapiens, 96 h, SiHa (ATCC HTB-35), squamous-cell carcinoma, cervix, 4 days incubation. On the procedure:
(§3) Human tumour cells were originally obtained from the American Type Culture Collection (ATCC), the Deutsche Sammlung von Mikroorganismen and Zellkulturen (DSMZ) (German Collection of Microorganisms and Cell Cultures) in Braunschweig, CLS Cell Lines Service GmbH in Eppelheim, the Institut Gustave Roussy (Villejuif, France), or the Charité in Berlin (table 1). Adherently growing cells (A-673, RD, Rh30, Rh41, SK-N-AS, NCI-H2286, HCC-366, FaDu, CAL-33, RPMI-2650, SiHa) were plated out in a density of 3000-4000 cells/measurement point, depending on the rate of growth of the cell line, in a 96-well multititre plate in 200 μl of growth medium (DMEM/HAMS F12, 2 mM L-glutamine, 10% foetal calf serum). After 24 hours, the cells of one plate (zero plate) were dyed with crystal violet (see below), whereas the medium of the other plates was replaced with fresh culture medium (200 μl) to which the test substances were added in various concentrations (0 μM, and also in the range of 0.001-3 μM; the final concentration of the solvent dimethyl sulphoxide was 0.5%). The cells were incubated for 4 days in the presence of the test substances. Cell proliferation was determined by dyeing the cells with crystal violet: the cells were fixed at room temperature for 15 min by adding 20 μl/measurement point of an 11% strength glutaraldehyde solution. After washing the fixed cells three times with water, the plates were dried at room temperature. The cells were dyed by adding 100 μl/measurement point of a 0.1% strength crystal violet solution (pH adjusted to pH 3 by adding acetic acid). After washing the dyed cells three times with water, the plates were dried at room temperature. The dye was dissolved by adding 100 μl/measurement point of a 10% strength acetic acid solution. Absorbance was determined photometrically at a wavelength of 595 nm. The percentage change in cell growth was calculated by normalizing the measured values to the absorbance values of the zero plate (=0%) and the absorbance of the untreated (0 μM) cells (=100%). The measured data were normalized to 0% inhibition (cell proliferation without inhibitor) and 100% inhibition (zero plate). The IC50 values were determined by means of a four parameter fit.
as §2

The subject of the next experiment is FaDu cells. The experiment is described as above. Conditions: Homo sapiens, 96 h, FaDu (ATCC HTB-43), squamous-cell carcinoma, head and nape, 4 days incubation. On the procedure: as §3, §2
The next experiment deals with RD cells. The experiment is described as above. Conditions: Homo sapiens, 96 h, RD (CLS-300401), rhabdomyosarcoma, 4 days incubation. On the procedure:
as §3, §2

The subject of the next experiment is RPMI-2650 cells. The experiment is described as above. To be noted: Homo sapiens, 96 h, RPMI-2650 (DSMZ ACC-287), squamous-cell carcinoma, head and nape, 4 days incubation. As to the method: as §3, §2
Another experiment deals with Rh41 cells. Described as above. Conditions: Homo sapiens, 96 h, Rh41 (DSMZ ACC-592), rhabdomyosarcoma, 4 days incubation. As to the method:
as §3, §2

Another experiment concerns NCI-H2286 cells. The experiment is described as above. To be noted: Homo sapiens, 96 h, NCI-H2286 (ATCC CRL-5938), squamous-cell carcinoma, lung, 4 days incubation. On the procedure:
as §3, §2

The test system of the next experiment is HCC-366 cells. The description is as above. Conditions: Homo sapiens, HCC366, 96 h, HCC-366 (DSMZ ACC-492), squamous-cell carcinoma, lung, 4 days incubation. On the procedure: as §3, §2
The subject of another experiment is Rh30 cells. The description is as above. Conditions: Homo sapiens, 96 h, Rh30 (DSMZ ACC-489), rhabdomyosarcoma, 4 days incubation. As to the method: as §3, §2
In a further experiment the test system is CAL-33 cells. The description is as above. To be noted: Homo sapiens, 96 h, CAL-33 (DSMZ ACC-447), squamous-cell carcinoma, head and nape, 4 days incubation. As to the method:
as §3, §2

The subject of a further experiment is A-673 cells. The description is as above. To be noted: Homo sapiens, A673, 96 h, A-673 (ATCC CRL-1598), rhabdomyosarcoma, 4 days incubation. On the procedure: as §3, §2
For the next experiment, the system named is SK-N-AS cells. The description is as above. To be noted: Homo sapiens, 96 h, SK-N-AS (ATCC CRL-2137), neuroblastoma, 4 days incubation. As to the method:
as §3, §2

A further experiment concerns HBL-1 cells. Briefly: Proliferation assay, suspension cells, Cell Titer-Glo. To be noted: Homo sapiens, HBL1, 96 h; HBL-1 (Charité, Berlin), diffuse large B-cell lymphoma; 4 days incubation; CTG. On the procedure: (§4) Cells growing in suspension (HBL-1, TMD-8, GRANTA-519, Jeko-1) were plated out in a cell density of 2000-4000 cells/measurement point, depending on the rate of growth of the cell line, in a black-walled, clear-bottom 96-well multititre plate in 100 μl of growth medium (DMEM/HAMS F12, 2 mM L-glutamine, 10% foetal calf serum). After 24 hours, cell density was determined in one plate (zero plate) by adding 60 μl/measurement point of CTG solution (Promega Cell Titer-Glo solution (catalogue numbers G755B and G756B)), subsequent incubation for 2 min followed by 10 min shaking (in the dark) and measurement of luminescence (VICTOR V, Perkin Elmer). For the test plates, the test substances were prepared in various concentrations (0 μM, and also in the range of 0.001-3 μM; the final concentration of the solvent dimethyl sulphoxide was 0.5%) as 3× concentrated solutions in fresh growth medium. Aliquots of 50 μl each were added to the cell suspensions and the cells were incubated for 4 days in the presence of the test substances. Subsequently, cell density was determined using CTG solution as described above and IC50 values were calculated by means of a four parameter fit.
as §2
A general note: In ATP-based viability assays light output follows the ATP content of the culture.

The test system of a further experiment is GRANTA-519 cells. The description is as above. To be noted: Homo sapiens, 96 h; GRANTA-519 (DSMZ ACC-342), mantle cell lymphoma; 4 days incubation; CTG. As to the method: as §4, §2
The subject of another experiment is TMD-8 cells. The experiment is described as above. Conditions: Homo sapiens, TMD8, 96 h; TMD-8 (Charité, Berlin), diffuse large B-cell lymphoma; 4 days incubation; CTG. As to the method: as §4, §2
Experiment [2] relates to Jeko-1 cells. The description is as above. Conditions: Homo sapiens, 96 h; Jeko-1 (DSMZ ACC-553), mantle cell lymphoma; 4 days incubation; CTG. On the procedure: as §4, §2

For the molecule `C[C@@H](O)[C@@H](C)Oc1nc(Nc2ccc([S@](=N)(=O)C3CC3)cc2)ncc1C(F)(F)F` [BAY 1000394, (R)-S-cyclopropyl-S-(4-{[4-{[(1R, 2R)-2-hydroxy-1-methylpropyl]oxy}-5-(trifluoromethyl)pyrimidin-2-yl]amino}phenyl)sulphoximide], the IC50 with UPN-1 cells came to 4.7 nM; in the experiment on Jeko-1 cells [1], 31 nM; with SiHa cells it was 10 nM; in the experiment on FaDu cells, 46 nM; with RD cells it was 26 nM; with RPMI-2650 cells it was 13 nM. In addition, the IC50 with Rh41 cells worked out at 17 nM; with NCI-H2286 cells, 7 nM; with HCC-366 cells, 20 nM; in the experiment on Rh30 cells it was 23 nM; in the experiment on CAL-33 cells, 19 nM; in the experiment with A-673 cells it was 9.8 nM. Also, the IC50 with SK-N-AS cells worked out at 22 nM; in the experiment with HBL-1 cells, 24 nM; in the experiment with GRANTA-519 cells, 44 nM; in the experiment on TMD-8 cells it was 35 nM; in the experiment on Jeko-1 cells [2], 20 nM.
